Results taken from ChEMBL document CHEMBL3992544, “Novel 6-methoxycarbonyl indolinones bearing a pyrrole Mannich base moiety as angiokinase inhibitors” (Bioorg Med Chem, 2017).

How the values were obtained:
[1] = molecular target: Platelet-derived growth factor receptor beta (Homo sapiens, UniProt P09619); assay: Inhibition of human N-terminal GST-tagged PDGFRbeta cytoplasmic domain (557 to 1106 residues) expressed in baculovirus expression system preincubated for 10 mins followed by FAM-labeled peptide substrate addition measured after 1 hr by mobility shift assay
Sequence of Platelet-derived growth factor receptor beta (P09619 whole entry, the tested form may be a part): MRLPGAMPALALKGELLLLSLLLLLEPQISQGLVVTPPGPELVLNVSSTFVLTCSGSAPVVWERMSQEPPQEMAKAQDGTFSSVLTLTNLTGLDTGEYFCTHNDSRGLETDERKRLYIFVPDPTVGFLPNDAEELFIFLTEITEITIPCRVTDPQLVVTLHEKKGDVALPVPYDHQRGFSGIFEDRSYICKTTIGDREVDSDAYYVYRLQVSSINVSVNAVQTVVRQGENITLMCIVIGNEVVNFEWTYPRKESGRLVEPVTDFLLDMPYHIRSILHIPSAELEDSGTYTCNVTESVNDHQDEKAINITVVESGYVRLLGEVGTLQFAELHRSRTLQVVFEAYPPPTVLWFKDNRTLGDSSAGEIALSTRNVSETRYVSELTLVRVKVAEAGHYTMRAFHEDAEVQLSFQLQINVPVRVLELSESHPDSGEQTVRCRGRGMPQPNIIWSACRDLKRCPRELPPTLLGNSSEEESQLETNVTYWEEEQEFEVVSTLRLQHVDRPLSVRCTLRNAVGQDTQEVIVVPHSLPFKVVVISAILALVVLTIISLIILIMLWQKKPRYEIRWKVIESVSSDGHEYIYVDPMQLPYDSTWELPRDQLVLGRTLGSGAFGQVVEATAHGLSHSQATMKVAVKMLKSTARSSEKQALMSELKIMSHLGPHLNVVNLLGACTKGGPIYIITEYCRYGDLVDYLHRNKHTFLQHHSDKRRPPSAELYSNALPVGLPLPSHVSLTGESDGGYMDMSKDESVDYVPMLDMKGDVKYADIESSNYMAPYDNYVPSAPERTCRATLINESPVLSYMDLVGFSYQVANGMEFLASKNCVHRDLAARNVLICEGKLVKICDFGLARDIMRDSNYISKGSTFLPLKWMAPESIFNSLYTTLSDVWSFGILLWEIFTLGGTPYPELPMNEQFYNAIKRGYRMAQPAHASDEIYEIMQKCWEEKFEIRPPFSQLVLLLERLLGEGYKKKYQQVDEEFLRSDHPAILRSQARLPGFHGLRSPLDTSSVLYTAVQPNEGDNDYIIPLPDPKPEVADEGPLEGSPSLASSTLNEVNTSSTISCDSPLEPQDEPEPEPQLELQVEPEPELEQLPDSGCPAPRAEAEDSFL

HT-29 [2] = assay: Antiproliferative activity against human HT-29 cells after 72 hrs by MTT assay; settings: HT-29, 72 h
HeLa = assay: Antiproliferative activity against human HeLa cells after 72 hrs by MTT assay
SK-OV-3 = assay: Antiproliferative activity against human SKOV3 cells after 72 hrs by MTT assay; settings: SK-OV-3, 72 h
HT-29 [3] = assay: Induction of apoptosis in human HT-29 cells after 48 hrs by acridine orange/ethidium bromide staining based confocal laser scanning microscopic method; type: functional, cell-based
[4] = molecular target: Vascular endothelial growth factor receptor 1 (Homo sapiens, UniProt P17948); assay: Inhibition of recombinant human GST-tagged VEGFR1 cytoplasmic domain (781 to 1338 residues) expressed in baculovirus expression system preincubated for 10 mins followed by FAM-labeled peptide substrate addition measured after 1 hr by mobility shift assay
Sequence of Vascular endothelial growth factor receptor 1 (P17948 whole entry, the tested form may be a part): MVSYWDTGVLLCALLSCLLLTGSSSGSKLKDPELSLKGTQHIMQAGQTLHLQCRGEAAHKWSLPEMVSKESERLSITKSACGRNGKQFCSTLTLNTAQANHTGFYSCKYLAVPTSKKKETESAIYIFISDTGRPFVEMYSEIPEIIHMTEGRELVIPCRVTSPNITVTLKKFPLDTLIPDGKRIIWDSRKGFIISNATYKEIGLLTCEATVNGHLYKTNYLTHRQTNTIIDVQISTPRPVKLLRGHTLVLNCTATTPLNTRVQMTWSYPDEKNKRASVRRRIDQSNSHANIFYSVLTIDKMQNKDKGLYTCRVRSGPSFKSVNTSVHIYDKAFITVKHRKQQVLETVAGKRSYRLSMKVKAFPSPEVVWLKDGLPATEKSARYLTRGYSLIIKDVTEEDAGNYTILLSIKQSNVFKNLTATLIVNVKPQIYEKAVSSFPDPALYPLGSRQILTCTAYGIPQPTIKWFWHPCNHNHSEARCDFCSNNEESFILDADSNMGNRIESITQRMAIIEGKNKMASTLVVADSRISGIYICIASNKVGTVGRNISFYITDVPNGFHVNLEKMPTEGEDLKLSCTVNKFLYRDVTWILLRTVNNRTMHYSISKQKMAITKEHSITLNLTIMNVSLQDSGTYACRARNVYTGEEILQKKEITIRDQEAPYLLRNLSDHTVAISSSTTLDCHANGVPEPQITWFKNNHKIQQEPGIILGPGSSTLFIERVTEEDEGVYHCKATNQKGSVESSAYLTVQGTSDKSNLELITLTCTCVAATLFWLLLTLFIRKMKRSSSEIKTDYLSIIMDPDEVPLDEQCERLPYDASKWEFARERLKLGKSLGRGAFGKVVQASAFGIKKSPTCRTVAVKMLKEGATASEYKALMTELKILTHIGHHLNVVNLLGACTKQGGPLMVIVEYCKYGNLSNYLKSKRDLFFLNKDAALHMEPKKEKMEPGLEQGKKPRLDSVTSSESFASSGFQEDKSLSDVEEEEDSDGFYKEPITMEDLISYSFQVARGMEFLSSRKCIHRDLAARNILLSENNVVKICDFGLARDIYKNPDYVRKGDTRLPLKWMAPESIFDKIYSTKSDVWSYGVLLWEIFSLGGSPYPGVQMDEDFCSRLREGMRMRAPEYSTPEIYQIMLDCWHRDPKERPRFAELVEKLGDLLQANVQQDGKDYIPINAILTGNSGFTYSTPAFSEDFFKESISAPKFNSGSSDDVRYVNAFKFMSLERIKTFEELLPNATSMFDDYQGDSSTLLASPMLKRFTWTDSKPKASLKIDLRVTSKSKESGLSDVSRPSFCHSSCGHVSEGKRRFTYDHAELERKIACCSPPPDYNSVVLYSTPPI

[5] = molecular target: Fibroblast growth factor receptor 1 (Homo sapiens, UniProt P11362); assay: Inhibition of recombinant human GST-tagged FGFR1 cytoplasmic domain (398 to 822 residues) expressed in baculovirus expression system preincubated for 10 mins followed by FAM-labeled peptide substrate addition measured after 1 hr by mobility shift assay
Sequence of Fibroblast growth factor receptor 1 (P11362 whole entry, the tested form may be a part): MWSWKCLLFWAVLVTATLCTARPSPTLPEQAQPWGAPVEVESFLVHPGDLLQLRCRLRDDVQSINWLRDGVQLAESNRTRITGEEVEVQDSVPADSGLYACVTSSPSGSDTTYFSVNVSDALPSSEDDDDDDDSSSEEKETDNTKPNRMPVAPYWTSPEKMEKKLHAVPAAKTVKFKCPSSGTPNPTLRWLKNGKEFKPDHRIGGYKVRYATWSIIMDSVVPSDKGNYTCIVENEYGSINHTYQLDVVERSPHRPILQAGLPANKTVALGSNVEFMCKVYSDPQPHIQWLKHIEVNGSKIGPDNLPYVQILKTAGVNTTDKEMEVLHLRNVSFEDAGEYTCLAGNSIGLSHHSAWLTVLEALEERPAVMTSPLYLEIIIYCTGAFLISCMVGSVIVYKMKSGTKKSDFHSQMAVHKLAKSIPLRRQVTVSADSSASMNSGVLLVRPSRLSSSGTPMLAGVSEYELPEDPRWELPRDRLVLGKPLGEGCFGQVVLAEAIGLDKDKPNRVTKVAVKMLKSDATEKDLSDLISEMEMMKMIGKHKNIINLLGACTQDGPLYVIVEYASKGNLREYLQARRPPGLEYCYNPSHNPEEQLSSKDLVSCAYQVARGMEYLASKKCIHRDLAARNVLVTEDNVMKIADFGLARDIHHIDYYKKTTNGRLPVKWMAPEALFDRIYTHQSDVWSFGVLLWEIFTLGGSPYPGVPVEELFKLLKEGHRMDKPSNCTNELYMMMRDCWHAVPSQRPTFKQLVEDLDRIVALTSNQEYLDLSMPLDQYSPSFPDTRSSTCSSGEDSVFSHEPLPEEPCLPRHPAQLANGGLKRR

Compound | IC50 [1] [nM] | IC50 (HT-29 [2]) [nM] | IC50 (HeLa) [nM] | IC50 (SK-OV-3) [nM] | other results
COC(=O)c1ccc2c(c1)NC(=O)/C2=C(\Nc1ccc(-n2cccc2CN2CCNCC2)cc1)c1ccccc1 | 65.2 | – | – | – | –
COC(=O)c1ccc2c(c1)NC(=O)/C2=C(\Nc1ccc(Cn2cccc2CN(C)C)cc1)c1ccccc1 | 29.8 | – | – | – | –
COC(=O)c1ccc2c(c1)NC(=O)/C2=C(\Nc1ccc(Cn2cccc2CN2CCN(C)CC2)cc1)c1ccccc1 | 67.8 | – | – | – | –
COC(=O)c1ccc2c(c1)NC(=O)/C2=C(\Nc1ccc(-n2cccc2CN2CCN(C)CC2)cc1)c1ccccc1 | 83.2 | 3120 | 30400 | 25900 | –
COC(=O)c1ccc2c(c1)NC(=O)/C2=C(\Nc1ccc(-n2cccc2CN(C)C)cc1)c1ccccc1 | 14.3 | 980 | 53200 | 5220 | Activity (HT-29 [3]): Dose-dependent effect; IC50 [4]: 99.2 nM; IC50 [5]: > 500 nM

Now from value to compound, other results behind:

IC50 [1] [nM] | IC50 (HT-29 [2]) [nM] | IC50 (HeLa) [nM] | IC50 (SK-OV-3) [nM] | Compound | other results
27.1 | – | – | – | COC(=O)c1ccc2c(c1)NC(=O)/C2=C(\Nc1ccc(-n2cccc2CN2CCCC2)cc1)c1ccccc1 | –
– | 4900 | 51600 | 28800 | COC(=O)c1ccc2c(c1)NC(=O)/C2=C(\Nc1ccc(N(C)C(=O)CN2CCN(C)CC2)cc1)c1ccccc1 [NINTEDANIB] | –
45.5 | – | – | – | COC(=O)c1ccc2c(c1)NC(=O)/C2=C(\Nc1ccc(-n2cccc2CN2CCCCC2)cc1)c1ccccc1 | –
31.4 | – | – | – | CCN(CC)Cc1cccn1-c1ccc(N/C(=C2\C(=O)Nc3cc(C(=O)OC)ccc32)c2ccccc2)cc1 | –
